Reference: PubChem BioAssay (NCI)
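Each compound was tested at five concentrations against cells in 96-well plates for 48 hours. TGI: total growth inhibition.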 *1 amine or outer side, *2 acyl side, *3 side chain or, on linkers, in order; H or OH if unused. Where a SMILES comes first, the peptide text is derived from it. [ ]: non-standard residue; d: D form. X33 = C=CCC(O[*:1])C(=O)[*:2]; NMeV = CN[CH](C(=O)O)C(C)C; NMeA = CN[CH](C)C(=O)O; βAla = NCCC(=O)O

What was measured:
Experiment in all cases: inhibition of tumour cell growth, NCI panel, 48 h
ACHN renal = test system: ACHN renal
COLO 205 colon = test system: COLO 205 colon
HCT-116 colon = test system: HCT-116 colon
HOP-62 NSCLC = test system: HOP-62 NSCLC
HT29 colon = test system: HT29 colon
K-562 leukemia = test system: K-562 leukemia
MDA-MB-231 breast = test system: MDA-MB-231 breast
MDA-N = test system: MDA-N
OVCAR-4 ovarian = test system: OVCAR-4 ovarian
OVCAR-8 ovarian = test system: OVCAR-8 ovarian
PC-3 prostate = test system: PC-3 prostate
RXF 393 renal = test system: RXF 393 renal
SF-295 CNS = test system: SF-295 CNS
SK-MEL-5 melanoma = test system: SK-MEL-5 melanoma
UACC-62 melanoma = test system: UACC-62 melanoma
SK-MEL-2 melanoma = test system: SK-MEL-2 melanoma
A498 renal = test system: A498 renal

Row | Structure (SMILES) | TGI (ACHN renal) [µM] | TGI (COLO 205 colon) [µM] | TGI (HCT-116 colon) [µM] | TGI (HOP-62 NSCLC) [µM] | TGI (HT29 colon) [µM] | TGI (K-562 leukemia) [µM] | TGI (MDA-MB-231 breast) [µM] | TGI (MDA-N) [µM] | TGI (OVCAR-4 ovarian) [µM] | TGI (OVCAR-8 ovarian) [µM] | TGI (PC-3 prostate) [µM] | TGI (RXF 393 renal) [µM] | TGI (SF-295 CNS) [µM] | TGI (SK-MEL-5 melanoma) [µM] | TGI (UACC-62 melanoma) [µM] | TGI (SK-MEL-2 melanoma) [µM] | TGI (A498 renal) [µM]
1 | NNCCc1n[nH]c(=O)n1N | > 100 | > 100 | > 100 | > 100 | > 100 | > 100 | > 100 | > 100 | > 100 | > 100 | > 100 | > 100 | > 100 | > 100 | > 100 |  | 
2 | NC(CCC(=O)O)(CCC(=O)O)CCC(=O)O | > 100 | > 100 | > 100 |  | > 100 | > 100 | > 100 | > 100 |  | > 100 | > 100 | > 100 | > 100 | > 100 | > 100 | > 100 | 
3 | C=CCC1OC(=O)CCNC(=O)C(C)N(C)C(=O)C(C(C)C)N(C)C(=O)C(C(C)CC)NC(=O)C2CCCN2C1=O (stereo unspecified) (cyclo([X33]PI[NMeV][NMeA][βAla]); configuration not given here) | > 100 | > 100 | > 100 | > 100 | > 100 |  | 62.9 | > 100 | > 100 | > 100 | > 100 |  | > 100 | 6.12 | 7.43 | > 100 | 
4 | Cc1ccc2c(C)c3ccc4ccccc4c3c[n+]2c1 | > 100 | 27.2 | > 89.7 | 51.2 | > 100 | > 100 |  |  | 45.4 | 36.9 |  | 67.4 | > 81.1 | 25.4 | 27.4 | 29.5 | > 100
5 | Cc1ccc2c(c1)-c1c(C#N)c(N)nc(-c3ccccc3)c1CCS2(=O)=O | > 100 | > 56.3 | > 100 | > 100 | > 35 | 11.7 | > 100 |  | > 100 | > 95.5 | > 100 |  | > 100 | > 24 | > 100 | > 100 | > 80.2
6 | c1ccc(C2OCCO2)c(OCCOc2cc(OCCOc3ccccc3C3OCCO3)c(OCCOc3ccccc3C3OCCO3)cc2OCCOc2ccccc2C2OCCO2)c1 | > 100 | > 100 | 44.2 | 28.6 | > 100 | > 100 |  |  | 30.2 | > 100 |  | 18.2 | > 100 | > 100 | 37.6 | 47.9 | 35.4
7 | Cn1c(=O)c2c(ncn2CCCCOc2ccc3c(c2)[n+]([O-])nc(N)[n+]3[O-])n(C)c1=O |  | 43.2 | > 100 | > 100 | > 100 | > 100 | > 100 | > 100 | > 100 | > 100 | > 100 | 80.4 | > 100 | 22.1 | 42 | > 100 | 
